# According to patent US20230021483A1, “[…] […] METHOD AND CLASSIFICATION OF PHARMACEUTICAL COMPONENTS BY USING TRANSCRIPTOMES” (National Institutes of Biomedical Innovation, Health and …, priority 2016, published 2023):
# Tested on: adjuvant-associated biological themes in LV, SP, LN
# How it was run: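 Per-mouse whole-organ transcriptomes; genes with eij/ei(c)>2.0 tested for theme enrichment via TargetMine (GO, KEGG, Reactome, others), Fisher's exact test, Holm-Bonferroni correction. Themes shared by all three mice kept at p<0.05, using the smallest p. Score per adjuvant-associated term = Σ−log(p) of matching themes.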
substance,measurement,setting,value
Monophosphoryl lipid A [MPLA],"IFN alpha, GO annotation line 1 of 5","LV, ID",0
same,"IFN alpha, GO annotation line 2 of 5","LV, ID",0
same,IFN alpha: cellular response to interferon-alpha,"LV, ID",0
same,IFN alpha: positive regulation of interferon-alpha production,"LV, ID",0
same,IFN alpha: regulation of interferon-alpha production,"LV, ID",0
same,IFN beta: cellular response to interferon-beta,"LV, ID",0
same,IFN beta: interferon-beta production,"LV, ID",0
same,IFN beta: positive regulation of interferon-beta production,"LV, ID",0
same,IFN beta: regulation of interferon-beta production,"LV, ID",0
same,IFN beta: response to interferon-beta,"LV, ID",0
same,IFN gamma: cellular response to interferon-gamma,"LV, ID",0
same,IFN gamma: interferon-gamma production,"LV, ID",0
same,IFN gamma: regulation of interferon-gamma production,"LV, ID",0
same,IFN gamma: response to interferon-gamma,"LV, ID",0
same,"NF-kappa B signaling pathway, GO annotation line 1 of 4","LV, ID",0
same,"NF-kappa B signaling pathway, GO annotation line 2 of 4","LV, ID",0
same,"NF-kappa B signaling pathway, GO annotation line 3 of 4","LV, ID",0
same,"NF-kappa B signaling pathway, GO annotation line 4 of 4","LV, ID",0
same,TNF signaling pathway,"LV, ID",3.93
same,"adaptive immune response, GO annotation line 1 of 5","LV, ID",0
same,"adaptive immune response, GO annotation line 2 of 5","LV, ID",0
same,"adaptive immune response, GO annotation line 3 of 5","LV, ID",0
same,"adaptive immune response, GO annotation line 4 of 5","LV, ID",0
same,"adaptive immune response, GO annotation line 5 of 5","LV, ID",0
same,"apoptosis, GO annotation line 1 of 8","LV, ID",0
same,"apoptosis, GO annotation line 2 of 8","LV, ID",0
same,"apoptosis, GO annotation line 3 of 8","LV, ID",0
same,"apoptosis, GO annotation line 4 of 8","LV, ID",0
same,"apoptosis, GO annotation line 5 of 8","LV, ID",0
same,"apoptosis, GO annotation line 6 of 8","LV, ID",0
same,"apoptosis, GO annotation line 7 of 8","LV, ID",0
same,"apoptosis, GO annotation line 8 of 8","LV, ID",0
same,"cell death, GO annotation line 1 of 9","LV, ID",0
same,"cell death, GO annotation line 2 of 9","LV, ID",0
same,"cell death, GO annotation line 3 of 9","LV, ID",0
same,"cell death, GO annotation line 4 of 9","LV, ID",0
same,"cell death, GO annotation line 5 of 9","LV, ID",0
same,"cell death, GO annotation line 6 of 9","LV, ID",0
same,"cell death, GO annotation line 7 of 9","LV, ID",0
same,"cell death, GO annotation line 8 of 9","LV, ID",0
same,"cell death, GO annotation line 9 of 9","LV, ID",0
same,"chemokine, GO annotation line 1 of 4","LV, ID",0
same,"chemokine, GO annotation line 2 of 4","LV, ID",0
same,"chemokine, GO annotation line 3 of 4","LV, ID",0
same,"chemokine, GO annotation line 4 of 4","LV, ID",0
same,"chemotaxis, GO annotation line 1 of 11","LV, ID",3.38
same,"chemotaxis, GO annotation line 2 of 11","LV, ID",0
same,"chemotaxis, GO annotation line 3 of 11","LV, ID",0
same,"chemotaxis, GO annotation line 4 of 11","LV, ID",0
same,"chemotaxis, GO annotation line 5 of 11","LV, ID",0
same,"chemotaxis, GO annotation line 6 of 11","LV, ID",0
same,"chemotaxis, GO annotation line 7 of 11","LV, ID",0
same,"chemotaxis, GO annotation line 8 of 11","LV, ID",0
same,"chemotaxis, GO annotation line 9 of 11","LV, ID",0
same,"chemotaxis, GO annotation line 10 of 11","LV, ID",0
same,"chemotaxis, GO annotation line 11 of 11","LV, ID",0
same,"cytokine, GO annotation line 1 of 17","LV, ID",0
same,"cytokine, GO annotation line 2 of 17","LV, ID",0
same,"cytokine, GO annotation line 3 of 17","LV, ID",0
same,"cytokine, GO annotation line 4 of 17","LV, ID",0
same,"cytokine, GO annotation line 5 of 17","LV, ID",0
same,"cytokine, GO annotation line 6 of 17","LV, ID",0
same,"cytokine, GO annotation line 7 of 17","LV, ID",0
same,"cytokine, GO annotation line 8 of 17","LV, ID",0
same,"cytokine, GO annotation line 9 of 17","LV, ID",0
same,"cytokine, GO annotation line 10 of 17","LV, ID",0
same,"cytokine, GO annotation line 11 of 17","LV, ID",0
same,"cytokine, GO annotation line 12 of 17","LV, ID",0
same,"cytokine, GO annotation line 13 of 17","LV, ID",0
same,"cytokine, GO annotation line 14 of 17","LV, ID",0
same,"cytokine, GO annotation line 15 of 17","LV, ID",0
same,"cytokine, GO annotation line 16 of 17","LV, ID",0
same,"cytokine, GO annotation line 17 of 17","LV, ID",0
same,"defense response, GO annotation line 1 of 11","LV, ID",0
same,"defense response, GO annotation line 2 of 11","LV, ID",0
same,"defense response, GO annotation line 3 of 11","LV, ID",0
same,"defense response, GO annotation line 4 of 11","LV, ID",0
same,"defense response, GO annotation line 5 of 11","LV, ID",0
same,"defense response, GO annotation line 6 of 11","LV, ID",0
same,"defense response, GO annotation line 7 of 11","LV, ID",0
same,"defense response, GO annotation line 8 of 11","LV, ID",0
same,"defense response, GO annotation line 9 of 11","LV, ID",0
same,"defense response, GO annotation line 10 of 11","LV, ID",0
same,"defense response, GO annotation line 11 of 11","LV, ID",0
same,"immune response, GO annotation line 1 of 8","LV, ID",0
same,"immune response, GO annotation line 2 of 8","LV, ID",0
same,"immune response, GO annotation line 3 of 8","LV, ID",0
same,"immune response, GO annotation line 4 of 8","LV, ID",0
same,"immune response, GO annotation line 5 of 8","LV, ID",0
same,"immune response, GO annotation line 6 of 8","LV, ID",0
same,"immune response, GO annotation line 7 of 8","LV, ID",0
same,"immune response, GO annotation line 8 of 8","LV, ID",0
same,"inflammatory response, GO annotation line 1 of 5","LV, ID",0
same,"inflammatory response, GO annotation line 2 of 5","LV, ID",0
same,"inflammatory response, GO annotation line 3 of 5","LV, ID",0
same,"inflammatory response, GO annotation line 4 of 5","LV, ID",0
same,"inflammatory response, GO annotation line 5 of 5","LV, ID",0
same,"innate immune response, GO annotation line 1 of 6","LV, ID",0
same,"innate immune response, GO annotation line 2 of 6","LV, ID",0
same,"innate immune response, GO annotation line 3 of 6","LV, ID",0
same,"innate immune response, GO annotation line 4 of 6","LV, ID",0
same,"innate immune response, GO annotation line 5 of 6","LV, ID",0
same,"innate immune response, GO annotation line 6 of 6","LV, ID",0
same,interleukin-6: interleukin-6 production,"LV, ID",0
same,interleukin-6: positive regulation of interleukin-6 production,"LV, ID",0
same,interleukin-6: regulation of interleukin-6 production,"LV, ID",0
same,interleukin-12: interleukin-12 production,"LV, ID",0
same,interleukin-12: positive regulation of interleukin-12 production,"LV, ID",0
same,interleukin-12: regulation of interleukin-12 production,"LV, ID",0
same,"migration, GO annotation line 1 of 10","LV, ID",0
same,"migration, GO annotation line 2 of 10","LV, ID",0
same,"migration, GO annotation line 3 of 10","LV, ID",0
same,"migration, GO annotation line 4 of 10","LV, ID",0
same,"migration, GO annotation line 5 of 10","LV, ID",0
same,"migration, GO annotation line 6 of 10","LV, ID",0
same,"migration, GO annotation line 7 of 10","LV, ID",0
same,"migration, GO annotation line 8 of 10","LV, ID",0
same,"migration, GO annotation line 9 of 10","LV, ID",0
same,"migration, GO annotation line 10 of 10","LV, ID",0
same,"stress, GO annotation line 1 of 3","LV, ID",0
same,"stress, GO annotation line 2 of 3","LV, ID",0
same,"stress, GO annotation line 3 of 3","LV, ID",0
same,"wounding, GO annotation line 1 of 3","LV, ID",0
same,"wounding, GO annotation line 2 of 3","LV, ID",0
same,"wounding, GO annotation line 3 of 3","LV, ID",0
same,systemic organ (LV and SP) responses after i.d. local administration,"i.d., fold change >2",limited responses in LV and SP
